Experimental data published in EPA's ToxValDB 9.5.

Tested on: Rattus norvegicus
[1] = developmental, oral, drinking water, M, Wistar, generation: F1, F1: elevated plus maze (open arm entries) + F1: elevated plus maze (time in open arms) + F1: open field (grooming events) + F1: open field (…
[2] = developmental, oral, gavage, F, Wistar, generation: F1, F1: novel object test (time exploring both objects, trial 2) + F1: novel object test (time exploring familiar object, trial 2)
[3] = developmental, oral, gavage, M, Wistar, generation: F1, F1: active avoidance (shuttle box, conditioned avoidance response, 4th block) + F1: passive avoidance (avoidance latency) + F1: rotarod (…
[4] = developmental, oral, gavage, M, Wistar, generation: F1, F1: auditory startle reflex (peak latency) + F1: auditory startle reflex (pre-pulse inhibition peak latency) + F1: vocalization (number …
[5] = subchronic, duration: 3 months, oral, drinking water, M/F, Sprague-Dawley, Morris water maze (escape time, acquisition, day 1) + Morris water maze (escape time, acquisition, day 5)
[6] = subchronic, duration: 3 months, oral, drinking water, M/F, Sprague-Dawley, Morris water maze (escape time, acquisition, day 6)
[7] = subchronic, duration: 12 weeks, oral, drinking water, M, Sprague-Dawley, territorial aggression (ventral presenting posture events of stud male)
[8] = subchronic, duration: 30 days, oral, drinking water, M, Wistar, active avoidance (shuttle box, number of avoidances of conditioned shock stimulus)

`[F-].[Na+]` [Sodium fluoride] gave an LOEL (developmental, oral, drinking water, M/F, Wistar, generation: F1, F1: open field (rearing events, day 1) + F1: open field (rearing events, day 3)) of 2.33 mg/kg-day, an NOEL (developmental, oral, drinking water, M/F, Wistar, generation: F1, F1: open field (squares crossed, day 1) + F1: open field (squares crossed, day 3)) of 4.87 mg/kg-day and an LOEL (developmental, oral, drinking water, M/F, Wistar, generation: F1, F1: passive avoidance (step-down test, number of shocks, session 2, day 30) + F1: passive avoidance (step-down test, time to move from …) of 6.91 mg/kg-day. For the same compound, the NOEL (developmental, oral, drinking water, M, Wistar, generation: F1, F1: cliff avoidance + F1: ear opening + F1: negative geotaxis + F1: surface righting) was 0.54 mg/kg-day, the LOEL [1] was 0.27 mg/kg-day and the NOEL [1] was 0.54 mg/kg-day. It also gave an LOEL (developmental, oral, drinking water, M, Wistar, generation: F1, F1: eye opening) of 0.27 mg/kg-day, an LOEL (developmental, oral, drinking water, M, Wistar, generation: F1, F1: open field (defecation)) of 0.27 mg/kg-day and an NOEL (developmental, oral, drinking water, M, Wistar, generation: F1, F1: open field (defecation) + F1: open field (rearing events, 15 min)) of 0.54 mg/kg-day. For the same compound, the LOEL (developmental, oral, drinking water, M, Wistar, generation: F1, F1: sexual behavior (% of males ejaculating) + F1: sexual behavior (ejaculation frequency) + F1: sexual behavior (ejaculation latency) + F1…) was 3.12 mg/kg-day, the NOEL (developmental, oral, drinking water, Wistar, generation: F1, F1: Y-maze (error number, 12 weeks) + F1: Y-maze (error number, 6 weeks) + F1: Y-maze (time to meet learning standard 90%, 6 weeks) + F1: Y-…) was 2.78 mg/L serum and the LOEL (developmental, oral, drinking water, Wistar, generation: F1, F1: Y-maze (time to meet learning standard 90%, 12 weeks) + F1: Y-maze (total reaction time, 6 weeks)) was 2.78 mg/L serum. It also gave an NOEL (developmental, oral, gavage, F, Wistar, generation: F1, F1: active avoidance (shuttle box, conditioned avoidance response, 1st block) + F1: active avoidance (shuttle box, conditioned avoidance …) of 2.26 mg/kg-day, an NOEL (developmental, oral, gavage, F, Wistar, generation: F1, F1: auditory startle reflex (amplitude) + F1: auditory startle reflex (peak latency) + F1: auditory startle reflex (pre-pulse inhibition …) of 2.26 mg/kg-day and an LOEL [2] of 2.26 mg/kg-day. For the same compound, the NOEL [2] was 1.13 mg/kg-day, the LOEL (developmental, oral, gavage, M/F, Sprague-Dawley, generation: F1, F1: air righting + F1: Morris water maze (escape time, probe test, day 5) + F1: Morris water maze (platform crossing, probe test, day 5) + …) was 3.44 mg/kg-day and the NOEL (developmental, oral, gavage, M/F, Sprague-Dawley, generation: F1, F1: auditory startle (response to metal object sound) + F1: cliff avoidance) was 3.44 mg/kg-day. The NOEL (developmental, oral, gavage, M, Wistar, generation: F1, F1: active avoidance (shuttle box, conditioned avoidance response, 1st block) + F1: novel object test (time exploring both objects, trial 2…) was 2.26 mg/kg-day, the LOEL [3] was 2.26 mg/kg-day and the NOEL [3] was 1.13 mg/kg-day. For the same compound, the LOEL (developmental, oral, gavage, M, Wistar, generation: F1, F1: auditory startle reflex (amplitude)) was 1.13 mg/kg-day, the LOEL [4] was 2.26 mg/kg-day and the NOEL [4] was 1.13 mg/kg-day. The LOEL (developmental, oral, gavage, M, Wistar, generation: F1, F1: sexual behavior (mount/intromission frequency) + F1: sexual behavior (mount/intromission latency)) was 1.13 mg/kg-day, the LOEL (short-term, duration: 14 days, injection, intraperitoneal, M, Wistar, rotarod (endurance time)) was 9.05 mg/kg-day and the LOEL [5] was 1.36 mg/kg-day. The NOEL [5] was 0.68 mg/kg-day, the LOEL [6] was 3.27 mg/kg-day and the NOEL [6] was 0.33 mg/kg-day. For the same compound, the NOEL (subchronic, duration: 3 months, oral, drinking water, M/F, Sprague-Dawley, Morris water maze (platform crossing, probe test, day 7) + Morris water maze (time in target quadrant, probe test, day 7)) was 3.27 mg/kg-day, the LOEL (subchronic, duration: 3 months, oral, drinking water, M/F, Wistar, passive avoidance (step-down test, time to move from rubber mat to electrified bar, session 2, day 30) + passive avoidance (step-down test, …) was 5.84 mg/kg-day and the LOEL (subchronic, duration: 3 months, oral, drinking water, M, Sprague-Dawley, Morris water maze (escape time, acquisition, day 1) + Morris water maze (escape time, acquisition, day 11) + Morris water maze (escape time…) was 7.52 mg/kg-day. It also gave an NOEL (subchronic, duration: 3 months, oral, drinking water, M, Wistar, Morris water maze (entries into target quadrant, probe test, day 4) + Morris water maze (escape time, acquisition, day 2) + Morris water …) of 3.34 mg/kg-day, an LOEL (subchronic, duration: 3 months, oral, gavage, M/F, Sprague-Dawley, Morris water maze (escape time, acquisition day 1) + Morris water maze (escape time, acquisition, day 5)) of 9.05 mg/kg-day and an NOEL (subchronic, duration: 3 months, oral, gavage, M, Albino, open field (ambulation distance) + open field (ambulation time) + open field (immobility time) + open field, stereotypic events + open field…) of 9.05 mg/kg-day. It also gave an LOEL (subchronic, duration: 3 months, oral, gavage, M, Albino, open field (squares crossed)) of 4.52 mg/kg-day, an LOEL (subchronic, duration: 3 months, oral, gavage, M, Wistar, Y-maze (number of training runs to meet 90% learning standard, day 23) + Y-maze (number of training runs to meet 90% learning standard, day …) of 6.67 mg/kg-day and an NOEL (subchronic, duration: 12 weeks, oral, drinking water, M, Sprague-Dawley, sexual behavior (ejaculation latency) + territorial aggression (fights with stud male)) of 18.8 mg/kg-day. For the same compound, the LOEL (subchronic, duration: 12 weeks, oral, drinking water, M, Sprague-Dawley, sexual behavior (intromission latency) + sexual behavior (post-ejaculatory interval) + sexual behavior (time to first mount) + sexual …) was 6.27 mg/kg-day, the LOEL [7] was 18.8 mg/kg-day and the NOEL [7] was 6.27 mg/kg-day. The NOEL (subchronic, duration: 12 weeks, oral, gavage, Wistar, open field (ambulation distance, 12 wks) + open field (ambulation distance, 3 wks) + open field (ambulation events, 12 wks) + open field (…) was 2.3 mg/kg-day, the NOEL (subchronic, duration: 30 days, oral, drinking water, M/F, Wistar, activity cage (ambulatory events) + activity cage (head turning events) + activity cage (head turning time) + activity cage (rearing events…) was 10.4 mg/kg-day and the LOEL (subchronic, duration: 30 days, oral, drinking water, M/F, Wistar, activity cage (ambulatory time) + activity cage (rearing time) + activity cage (sitting events) + activity cage (sitting time) + activity …) was 10.4 mg/kg-day. It also gave an NOEL (subchronic, duration: 30 days, oral, drinking water, M, Wistar, T-maze (number of errors, retention phase)) of 40 mg/kg-day, an LOEL (subchronic, duration: 30 days, oral, drinking water, M, Wistar, T-maze (number of sessions to reach learning criterion)) of 40 mg/kg-day and an LOEL [8] of 4.87 mg/kg-day. It also gave an NOEL [8] of 2.33 mg/kg-day, an NOEL (subchronic, duration: 30 days, oral, drinking water, M, Wistar, active avoidance (shuttle box, number of escapes of conditioned shock stimulus) + active avoidance (shuttle box, number of failures to avoid…) of 4.87 mg/kg-day and an LOEL (subchronic, duration: 30 days, oral, drinking water, M, Wistar, dental fluorosis_0 degrees + dental fluorosis_1 degree + open field (squares crossed, test session)) of 2.33 mg/kg-day. The NOEL (subchronic, duration: 30 days, oral, drinking water, M, Wistar, open field (squares crossed, day 1 - minute 1) + open field (squares crossed, day 1 - minute 2) + open field (squares crossed, day 1) + open…) was 6.67 mg/kg-day, the NOEL (subchronic, duration: 30 days, oral, drinking water, M, Wistar, passive avoidance (exploration, number of crossings) + passive avoidance (exploration, time in small compartment)) was 14.8 mg/kg-day and the LOEL (subchronic, duration: 30 days, oral, drinking water, M, Wistar, passive avoidance (retention, number of crossings) + passive avoidance (retention, time in small compartment) + T-maze (exploratory activity…) was 14.8 mg/kg-day. For the same compound, the LOEL (subchronic, duration: 30 days, oral, drinking water, M, Wistar, passive avoidance (retention, time in small compartment) + T-maze (exploratory activity) + T-maze (number of correct choices) + T-maze (…) was 14.8 mg/kg-day, the “LOEL (mg% thigh bone)” value (subchronic, duration: 30 days, oral, gavage, motor activity (spontaneous) + orienting reflex) was 10.6 and the LOEL (subchronic, duration: 60 days, oral, drinking water, F, Wistar, activity cage (exploratory motor activity events) + rotarod (latency to fall, 14 rpm)) was 111 mg/kg-day. For the same compound, the LOEL (subchronic, duration: 60 days, oral, drinking water, F, Wistar, activity cage (motor activity events) + rotarod (latency to fall, 14 rpm)) was 1.94 mg/L serum, the LOEL (subchronic, duration: 60 days, oral, drinking water, Wistar, passive avoidance (retention, latency)) was 1.8 mg/kg-day and the LOEL (subchronic, duration: 60 days, oral, gavage, F, Wistar, activity cage (ambulation events)) was 9.05 mg/kg-day. It also gave an NOEL (subchronic, duration: 60 days, oral, gavage, F, Wistar, rotarod (latency to fall, 14 rpm)) of 18.1 mg/kg-day.
